Format in all cases: cell-based
The target of experiment [1] is T1, VvALMT9 (Vitis vinifera, UniProt F6GTK1, Y237C).
T1 construct: gene VIT_17s0000g03850; full-length, untagged as told; cRNA from pGEMHE-DEST in Xenopus laevis oocytes
The experiment can be described thus: two-electrode voltage clamp, X. laevis oocytes. Conditions: read-out: half-maximal effective concentration. Background: Two-electrode voltage clamp holds a large cell at a set potential and records current.

Experiment [2] concerns the target T2, VvALMT9 (Vitis vinifera, UniProt F6GTK1).
T2 construct: gene VIT_17s0000g03850; full-length, untagged as told; cRNA from pGEMHE-DEST in Xenopus laevis oocytes
T2 sequence (F6GTK1 1-588): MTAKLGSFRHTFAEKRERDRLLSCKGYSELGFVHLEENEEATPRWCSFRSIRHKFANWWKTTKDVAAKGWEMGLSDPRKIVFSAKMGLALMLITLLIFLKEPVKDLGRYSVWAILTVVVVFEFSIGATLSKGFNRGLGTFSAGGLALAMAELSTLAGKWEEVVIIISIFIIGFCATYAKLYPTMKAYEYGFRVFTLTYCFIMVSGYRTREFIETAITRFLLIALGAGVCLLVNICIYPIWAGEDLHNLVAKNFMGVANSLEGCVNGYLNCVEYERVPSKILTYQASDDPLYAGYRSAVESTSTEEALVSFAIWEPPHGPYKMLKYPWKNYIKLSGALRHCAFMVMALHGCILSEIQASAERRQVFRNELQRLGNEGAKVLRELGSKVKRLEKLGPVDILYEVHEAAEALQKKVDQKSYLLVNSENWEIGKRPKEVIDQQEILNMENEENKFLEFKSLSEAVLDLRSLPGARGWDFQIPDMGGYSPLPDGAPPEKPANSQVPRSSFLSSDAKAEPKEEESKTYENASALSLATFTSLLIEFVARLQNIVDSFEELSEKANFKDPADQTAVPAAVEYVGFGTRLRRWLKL
As to the kind of experiment: two-electrode voltage clamp, X. laevis oocytes. Conditions: read-out: half-maximal effective concentration.

Experiment [3] has as its target T3, TaALMT1 (Triticum aestivum, UniProt Q76LB1).
T3 construct: gene ALMT1; full-length, untagged as told; cRNA from pGEMHE-DEST in Xenopus laevis oocytes; BY2 tobacco line for flux
T3 sequence (Q76LB1 1-459): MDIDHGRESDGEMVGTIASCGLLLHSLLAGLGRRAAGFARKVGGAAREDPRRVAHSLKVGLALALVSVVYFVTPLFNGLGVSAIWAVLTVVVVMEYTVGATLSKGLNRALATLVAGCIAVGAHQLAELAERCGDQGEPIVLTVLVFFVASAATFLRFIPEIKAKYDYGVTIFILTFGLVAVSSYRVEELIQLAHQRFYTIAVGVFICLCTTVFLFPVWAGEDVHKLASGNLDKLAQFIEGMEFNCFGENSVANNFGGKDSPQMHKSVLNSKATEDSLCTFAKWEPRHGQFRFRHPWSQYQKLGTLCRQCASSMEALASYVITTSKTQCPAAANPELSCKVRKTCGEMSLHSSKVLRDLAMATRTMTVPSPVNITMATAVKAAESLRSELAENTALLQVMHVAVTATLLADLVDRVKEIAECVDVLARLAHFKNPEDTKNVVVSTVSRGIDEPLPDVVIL
As to the kind of experiment: two-electrode voltage clamp, X. laevis oocytes.

In experiment [4] the target is T4, TaALMT1 (Triticum aestivum, UniProt Q76LB1, F215C).
T4 construct: gene ALMT1; full-length, untagged as told; cRNA from pGEMHE-DEST in Xenopus laevis oocytes; BY2 tobacco line for flux
T4 sequence (Q76LB1 1-459 F215C): T3 sequence (Q76LB1 1-459) with F215C
The experiment can be described thus: two-electrode voltage clamp, X. laevis oocytes. Conditions: 10 mM malate-activated current, 100 μM GABA.

The target of experiment [5] is T5, TaALMT1 (Triticum aestivum, UniProt Q76LB1, F213C/F215C).
T5 construct: gene ALMT1; full-length, untagged as told; cRNA from pGEMHE-DEST in Xenopus laevis oocytes; BY2 tobacco line for flux
T5 sequence (Q76LB1 1-459 F213C/F215C): T3 sequence (Q76LB1 1-459) with F213C, F215C
The experiment can be described thus: two-electrode voltage clamp, X. laevis oocytes. Conditions: read-out: half-maximal effective concentration.

Experiment [6] concerns the target T3, TaALMT1. As to the kind of experiment: two-electrode voltage clamp in oocytes; malate efflux from TaALMT1-expressing BY2 cells. The conditions noted are these: 100 μM bicuculline against muscimol or GABA; competitive antagonist.

Numbering of substitutions follows the chain as printed. pEC50: −log10 of the molar value. Like-named read-outs stand apart in the source and are kept apart here.

T1 sequence (F6GTK1 entry or part of it Y237C): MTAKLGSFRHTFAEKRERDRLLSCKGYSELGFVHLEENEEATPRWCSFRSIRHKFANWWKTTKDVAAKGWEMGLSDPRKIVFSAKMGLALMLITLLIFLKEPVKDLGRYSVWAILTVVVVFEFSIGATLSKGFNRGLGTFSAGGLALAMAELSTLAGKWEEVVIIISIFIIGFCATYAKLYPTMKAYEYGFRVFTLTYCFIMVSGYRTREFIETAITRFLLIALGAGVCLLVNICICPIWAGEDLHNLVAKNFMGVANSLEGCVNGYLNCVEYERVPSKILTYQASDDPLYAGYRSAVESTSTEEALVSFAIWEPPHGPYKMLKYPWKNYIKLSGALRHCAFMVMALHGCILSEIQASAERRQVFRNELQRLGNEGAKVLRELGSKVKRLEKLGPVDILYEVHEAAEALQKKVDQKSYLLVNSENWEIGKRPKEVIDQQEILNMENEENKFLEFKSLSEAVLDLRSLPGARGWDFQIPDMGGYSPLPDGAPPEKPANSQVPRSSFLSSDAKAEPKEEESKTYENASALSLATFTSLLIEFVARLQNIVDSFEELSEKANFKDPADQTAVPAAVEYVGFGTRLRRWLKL

Consider `NCCCC(=O)O` [GABA], for which the pEC50 is 3.16 in experiment [1], 5.30 in experiment [2], 5.49 in experiment [3] (read-out: half-maximal effective concentration) and less than 3.00 in experiment [5]. In addition, the “inhibition at 100 μM” value in experiment [4] is “whereas inward current through TaALMT1^F215C was reduced by GABA”.

For the compound `CN1CCc2cc3c(cc2[C@H]1[C@@H]1OC(=O)c2c1ccc1c2OCO1)OCO3` [bicuculline], the “two-electrode voltage clamp in oocytes; malate efflux from TaALMT1-expressing BY” value in experiment [6] is recorded as “bicuculline appears to act as a competitive antagonist to GABA action for TaALMT1”.

Compound `NCc1cc(=O)[nH]o1` [muscimol] gave a pEC50 in experiment [3] of 5.26.
